According to DBAASP:
≈ marks a conversion by molar mass, not a printed value.

Assays:
Experiment in all cases: ≥ marks a high value that may be exact or a test limit, other limits are often not marked, values filed in µg/mL are converted to µM
[1] = test system: Candida albicans ATCC 90028
[2] = test system: Escherichia coli ATCC 25922
[3] = test system: Staphylococcus aureus NCTC 8325
[4] = test system: Salmonella enterica serovar Typhimurium
[5] = test system: Enterococcus faecalis ATCC 29212
[6] = test system: Staphylococcus aureus ATCC 25923
[7] = test system: Staphylococcus epidermidis
[8] = test system: Candida albicans
[9] = test system: Pseudomonas aeruginosa H103
[10] = test system: Escherichia coli UB1005
[11] = test system: Enterococcus faecalis NCTC 12697
[12] = test system: Klebsiella pneumoniae ATCC 43816
[13] = test system: Candida albicans NCYC 1467
[14] = test system: Escherichia coli NCTC 10418
[15] = test system: Staphylococcus aureus NCTC 10788
[16] = test system: Pseudomonas aeruginosa ATCC 27853
[17] = test system: Staphylococcus aureus NCTC 12493
[18] = test system: Salmonella enterica subsp. enterica serovar Enteritidis
[19] = test system: Staphylococcus aureus ATCC 29213

MIC [3]	MIC [11]	MIC [12]	MIC [13]	MIC [14]	MIC [15]	MIC [16]	MIC [17]	SMILES	further results
	≥ 32 µM	≥ 512 µM	4 µM (≈ 8.22 µg/mL)	≥ 512 µM	2 µM (≈ 4.11 µg/mL)	> 512 µM	≥ 32 µM	CC[C@H](C)[C@H](NC(=O)[C@H](C)NC(=O)[C@H](CO)NC(=O)[C@@H](NC(=O)[C@H](C)NC(=O)[C@H](CCCCN)NC(=O)[C@@H]1CCCN1C(=O)[C@@H](NC(=O)[C@H](CC(C)C)NC(=O)[C@H](CO)NC(=O)[C@H](CC(C)C)NC(=O)[C@@H](N)Cc1ccccc1)[C@@H](C)CC)[C@@H](C)CC)C(=O)N[C@@H](CO)C(=O)N[C@@H](C)C(=O)N[C@@H](CC(C)C)C(=O)N[C@H](C(=O)N[C@@H](CC(N)=O)C(=O)N[C@@H](Cc1cnc[nH]1)C(=O)N[C@@H](Cc1ccccc1)C(N)=O)[C@@H](C)CC [FLSLIPKAISAISALINHF]	
4 µM (≈ 5.39 µg/mL)								CC[C@H](C)[C@H](NC(=O)CNC(=O)[C@H](CO)NC(=O)[C@@H](NC(=O)[C@@H](NC(=O)[C@H](CCCCN)NC(=O)[C@H](C)NC(=O)[C@H](CC(C)C)NC(=O)[C@H](C)NC(=O)CNC(=O)[C@H](CC(C)C)NC(=O)[C@@H](N)Cc1ccccc1)[C@@H](C)CC)[C@@H](C)CC)C(=O)N[C@@H](Cc1ccccc1)C(N)=O [FLGALAKIISGIF]	MIC [2]: > 100 µM
7 µM (≈ 17.1 µg/mL)								CC[C@H](C)[C@H](NC(=O)[C@H](CO)NC(=O)[C@@H]1CCCN1C(=O)[C@H](CC(C)C)NC(=O)[C@@H](NC(=O)[C@H](CCCCN)NC(=O)[C@H](C)NC(=O)[C@H](C)NC(=O)[C@H](CC(C)C)NC(=O)CNC(=O)[C@H](C)NC(=O)[C@@H](NC(=O)[C@@H](NC(=O)[C@@H]1CCCN1C(=O)[C@H](CC(C)C)NC(=O)[C@@H](N)Cc1ccccc1)C(C)C)C(C)C)C(C)C)C(=O)N[C@H](C(=O)N[C@H]1CSSC[C@@H](C(=O)O)NC(=O)[C@H](CCCCN)NC(=O)[C@H](CCCCN)NC(=O)[C@H]([C@@H](C)O)NC(=O)[C@H](C(C)C)NC(=O)[C@H](C)NC1=O)[C@@H](C)CC [FLPVVAGLAAKVLPSIICAVTKKC]	MIC [18]: ≥ 52.4 µM; MIC [19]: 2.32 µM (≈ 5.65 µg/mL)

More lines, now with the values behind:

SMILES	MIC [3]	MIC [11]	MIC [12]	MIC [13]	MIC [14]	MIC [15]	MIC [16]	MIC [17]	further results
CC[C@H](C)[C@@H]1NC(=O)[C@H](C)NC(=O)[C@@H](NC(=O)[C@H](Cc2ccccc2)NC(=O)[C@@H](NC(=O)[C@H](CCCCN)NC(=O)[C@H](CO)NC(=O)[C@H](Cc2ccccc2)NC(=O)[C@@H](NC(=O)[C@H](CC(N)=O)NC(=O)[C@H](C)NC(=O)[C@H](C)NC(=O)[C@@H](NC(=O)[C@H](CO)NC(=O)[C@H](C)NC(=O)[C@@H](NC(=O)[C@@H](NC(=O)[C@@H]2CCCN2C(=O)[C@H](CC(C)C)NC(=O)[C@@H](N)Cc2ccccc2)[C@@H](C)CC)[C@@H](C)CC)C(C)C)C(C)C)[C@@H](C)CC)CSSC[C@@H](C(=O)O)NC(=O)[C@H](CCCCN)NC(=O)[C@H](CCCCN)NC(=O)[C@H](CO)NC1=O [FLPIIASVAANVFSKIFCAISKKC]	27 µM (≈ 69.4 µg/mL)								MIC [1]: 29 µM (≈ 74.5 µg/mL); MIC [2]: 78 µM (≈ 200 µg/mL)
CC[C@H](C)[C@H](NC(=O)[C@H](CCCCN)NC(=O)[C@H](Cc1c[nH]c2ccccc12)NC(=O)[C@H](CCCNC(=N)N)NC(=O)[C@@H](N)CCCNC(=N)N)C(=O)N[C@H](C(=O)N[C@H](C(=O)N[C@H](C(=O)N[C@@H](CCCNC(=N)N)C(=O)N[C@@H](Cc1c[nH]c2ccccc12)C(=O)N[C@@H](CCCNC(=N)N)C(=O)N[C@@H](CCCNC(=N)N)C(=O)O)[C@@H](C)CC)C(C)C)C(C)C [RRWKIVVIRWRR]									MIC [4]: 2.8 µM (≈ 4.83 µg/mL); MIC [5]: 1.4 µM (≈ 2.41 µg/mL); MIC [6]: 0.7 µM (≈ 1.21 µg/mL); MIC [7]: 0.3 µM (≈ 0.517 µg/mL); MIC [8]: 11.1 µM (≈ 19.1 µg/mL); MIC [9]: 5.6 µM (≈ 9.66 µg/mL); MIC [10]: 1.4 µM (≈ 2.41 µg/mL)
CC[C@H](C)[C@H](NC(=O)[C@@H](NC(=O)[C@@H](NC(=O)[C@H](CCCN=C(N)N)NC(=O)[C@H](CCCN=C(N)N)NC(=O)[C@H](C)NC(=O)[C@H](CC(C)C)NC(=O)[C@@H](N)CCCN=C(N)N)C(C)C)C(C)C)C(=O)N[C@@H](CCCN=C(N)N)C(=O)N[C@H](C(=O)N[C@@H](C)C(=O)N[C@@H](CCCN=C(N)N)C(N)=O)C(C)C [RLARRVVIRVAR]									MIC [4]: 21.2 µM (≈ 31 µg/mL); MIC [5]: 85.3 µM (≈ 125 µg/mL); MIC [6]: 43 µM (≈ 63 µg/mL); MIC [7]: 10.9 µM (≈ 16 µg/mL); MIC [8]: 85.3 µM (≈ 125 µg/mL); MIC [9]: ≥ 43 µM; MIC [10]: 10.9 µM (≈ 16 µg/mL)
CC[C@H](C)[C@@H]1NC(=O)[C@H](C)NC(=O)[C@@H](NC(=O)[C@H](Cc2ccccc2)NC(=O)[C@@H](NC(=O)[C@H](CCCCN)NC(=O)[C@@H]2CCCN2C(=O)[C@H](CC(C)C)NC(=O)[C@@H](N)Cc2ccccc2)[C@@H](C)CC)CSSC[C@@H](C(=O)O)NC(=O)[C@H](CCCCN)NC(=O)[C@H](CCCCN)NC(=O)[C@H]([C@@H](C)O)NC1=O [FLPKIFCAITKKC]		≥ 512 µM	≥ 512 µM	≥ 512 µM	≥ 256 µM	≥ 256 µM	> 512 µM	≥ 256 µM	
CC[C@H](C)[C@H](NC(=O)[C@H](C)NC(=O)[C@H](C)NC(=O)[C@@H]1CCCN1C(=O)[C@@H](NC(=O)[C@H](CC(C)C)NC(=O)[C@H](CCCCN)NC(=O)CNC(=O)[C@H](C)NC(=O)[C@H](CS)NC(=O)[C@H](CCCCN)NC(=O)[C@H](CCCCN)NC(=O)[C@H](CO)NC(=O)[C@@H](NC(=O)[C@H](CCCCN)NC(=O)[C@H](CS)NC(=O)[C@@H](NC(=O)[C@H](CCCCN)NC(=O)[C@H](CC(C)C)NC(=O)[C@@H](NC(=O)[C@H](C)NC(=O)CNC(=O)[C@H](CC(C)C)NC(=O)[C@@H](N)Cc1ccccc1)C(C)C)C(C)C)[C@@H](C)CC)C(C)C)C(=O)O [FLGAVLKVCKISKKCAGKLVPAAI]		≥ 128 µM	≥ 256 µM	≥ 128 µM	16 µM (≈ 39.3 µg/mL)	≥ 32 µM	128 µM (≈ 315 µg/mL)	≥ 128 µM	
CC[C@H](C)[C@H](NC(=O)[C@H](CCCCN)NC(=O)[C@H](CO)NC(=O)[C@H](Cc1c[nH]c2ccccc12)NC(=O)[C@H](CC(C)C)NC(=O)CN)C(=O)N[C@@H](CCCCN)C(=O)N[C@@H](CC(=O)O)C(=O)N[C@@H](C)C(=O)N[C@@H](C)C(=O)N[C@@H](CCCCN)C(=O)N[C@H](C(=O)N[C@@H](C)C(=O)NCC(=O)N[C@@H](CCCCN)C(=O)N[C@@H](C)C(=O)N[C@@H](C)C(=O)N[C@@H](CC(C)C)C(=O)NCC(=O)N[C@@H](Cc1ccccc1)C(=O)N[C@H](C(=O)N[C@@H](CC(N)=O)C(=O)N[C@@H](CCC(=O)O)C(=O)N[C@@H](CCSC)C(=O)N[C@H](C(N)=O)C(C)C)C(C)C)[C@@H](C)O [GLWSKIKDAAKTAGKAALGFVNEMV]		16 µM (≈ 41.7 µg/mL)	8 µM (≈ 20.8 µg/mL)	≥ 64 µM	8 µM (≈ 20.8 µg/mL)	16 µM (≈ 41.7 µg/mL)	16 µM (≈ 41.7 µg/mL)	≥ 32 µM	
CC[C@H](C)[C@H](N)C(=O)N1CCC[C@H]1C(=O)N[C@@H](Cc1cnc[nH]1)C(=O)N[C@@H](C)C(=O)N[C@H](C(=O)N[C@@H](CCCCN)C(=O)N[C@@H](C)C(=O)N[C@H](C(=O)N[C@@H](CO)C(=O)N[C@@H](CC(=O)O)C(=O)N[C@@H](CC(C)C)C(=O)N[C@H](C(N)=O)[C@@H](C)CC)[C@@H](C)CC)C(C)C [IPHAVKAISDLI]	≥ 200 µM								MIC [1]: ≥ 200 µM; MIC [2]: > 200 µM
CC[C@H](C)[C@H](NC(=O)[C@H](CCCN=C(N)N)NC(=O)[C@H](CC(C)C)NC(=O)[C@H](CCC(N)=O)NC(=O)[C@@H](N)C(C)C)C(=O)N[C@@H](CCCN=C(N)N)C(=O)N[C@H](C(=O)N[C@@H](CCCN=C(N)N)C(=O)N[C@H](C(=O)N[C@H](C(=O)N[C@@H](CCCN=C(N)N)C(=O)N[C@@H](CCCCN)C(N)=O)[C@@H](C)CC)C(C)C)C(C)C [VQLRIRVRVIRK]									MIC [4]: 3.91 µM (≈ 6 µg/mL); MIC [6]: 7.81 µM (≈ 12 µg/mL); MIC [7]: 1.04 µM (≈ 1.6 µg/mL); MIC [8]: 3.91 µM (≈ 6 µg/mL); MIC [9]: 3.91 µM (≈ 6 µg/mL); MIC [10]: 1.95 µM (≈ 3 µg/mL)
